Residues, ends and D or L forms follow the SMILES beside them. *: point of attachment. Cbz = O=C(OCc1ccccc1)*

What is called IC50 is the midpoint of a concentration-inhibition curve. Lower therefore signals inhibition by little substance. Broadly, the half-life is the time in which the quantity being followed falls by half. A lower half-life goes with fast loss. As a reminder, the T/C is the ratio of treated to control.

Data set [1] concerns DLD-1. In words: Antiproliferative activity against human DLD1 cells after 72 hrs by sulforhodamine B assay. Type of data set: functional, cell-based. The conditions noted are these: DLD-1, 72 h. Background: The SRB assay estimates cell density from bound dye.
The subject of data set [2] is U-87 MG. In words: Antiproliferative activity against human U87 cells after 72 hrs by sulforhodamine B assay. Type of data set: functional, cell-based, U-87MG ATCC.
Data set [3] is described as follows: Selectivity ratio of IC50 for […] cells to IC50 for human RPMI8226/S cells. Type of data set: functional.
The nature of data set [4]: Cytotoxicity against […] cells after 4 hrs by MTT assay. Format: functional, cell-based. (Tetrazolium assays rely on reduction of a dye to a coloured formazan, in cell work by metabolically active cells.)
A short description of data set [5]: Cytotoxicity against human RPMI8226/S cells after 4 hrs by MTT assay. Format: functional, cell-based.
Data set [6] can be described thus: Half life in human. Type of data set: ADME.
Data set [7] has as its system Proteasome. Description: Inhibition of proteasome in human K562 cells assessed as half life of etoposide-induced Topoisomerase 2alpha-DNA complexes at 50 uM incubated for 2 hrs followed by etoposide washout and measured up to 120 mins by TARDIS assay (reference value: 0.5 hrs). Format: subcellular.
The subject of data set [8] is Proteasome. In words: Inhibition of proteasome in human K562 cells assessed as half life of mitoxantrone-induced Topoisomerase 2alpha-DNA complexes by measuring half life of complex at 50 uM incubated for 2 hrs followed by mitoxantrone washout and measured up to […] by TARDIS assay (reference value: 10 hrs). Format: subcellular.
The subject of data set [9] is Bel-7402. In words: Antiproliferative activity against human Bel7402 cells after 72 hrs by sulforhodamine B assay. Type of data set: functional, cell-based. The conditions noted are these: Bel-7402, 72 h.
Data set [10] deals with HeLa. Description: Antiproliferative activity against human HeLa cells after 72 hrs by sulforhodamine B assay. Format: functional, cell-based.
Data set [11] deals with P388. Description: Antitumor activity against mouse P388 cells implanted in ip dosed B6D2F1 mouse assessed as T/C value administered for 4 days. Format: functional.

As to `CCCCC(C#CC(=O)OC)O/C=C/C(=O)OC` (stereo not given), the IC50 was found to be 850 nM in [1] and 4900 nM in data set [2].
`COc1cccc2c1C(=O)c1c(O)c3c(c(O)c1C2=O)C[C@@](O)(C(=O)CO)C[C@@H]3O[C@H]1C[C@H](N)[C@H](O)[C@H](C)O1` [DOXORUBICIN]: the “Ratio IC50” value in data set [3] came out at 8.7. In addition, the results for the half-inhibitory concentration (IC50) in data set [4] and in [5] were 320 nM and 37 nM, respectively. In data set [6], this molecule came in with a half-life of 0.0667 h.
For `CC(C)C[C@@H](C=O)NC(=O)[C@H](CC(C)C)NC(=O)[C@H](CC(C)C)NC(=O)OCc1ccccc1` (Cbz-Leu-Leu-Leu-aldehyde), the T1/2 in [7] is more than 2 h; in [8], more than 24 h.
Turning to `N[C@@H]1CCN(c2c(F)cc3c(=O)c(C(=O)O)cn4c3c2Oc2c-4ccc3c2ccc2ccccc23)C1`, in data set [3], the “Ratio IC50” value is reported as 1.6. In addition, the IC50 in data set [4] came to 500 nM; in [5], 320 nM.
Consider `COc1ccc(O)c(C(=O)c2cnc3[nH]c4ccccc4c3c2)c1`, for which the half-inhibitory concentration (IC50) in [9] is 830 nM; in [10], 60 nM.
In data set [6], `CC[C@@]1(O)C(=O)OCc2c1cc1n(c2=O)Cc2cc3ccccc3nc2-1` [CAMPTOTHECIN] had a half-life of 1.18 to 1.5 h.
With `N[C@H]1CCN(c2c(F)cc3c(=O)c(C(=O)O)cn4c3c2Oc2c-4ccc3c2ccc2ccccc23)C1`, the “Ratio IC50” value in data set [3] amounted to 4. Further, the 50% inhibitory concentration (IC50) in data set [4] came to 2800 nM; in [5], 690 nM.
On to `COc1ccc2c(ccc3c2c2c(NCCCN(C)C)ncc(C)c2n3C)c1`, for which the T/C in data set [11] came out at 150%.
In the case of `Cc1cnc(NCCCN(C)C)c2c1[nH]c1ccc3ccccc3c12`, the T/C in [11] came to 150%.
As to `Cc1cnc(NCCCN(C)C)c2c1[nH]c1ccc3cc(O)ccc3c12` [INTOPLICINE], the T/C in [11] is listed as 270%.

The values above are taken from ChEMBL document CHEMBL4376825, “Dual Inhibitors of Human DNA Topoisomerase II and Other Cancer-Related Targets” (J Med Chem, 2020).
